In the METLIN SMRT retention time set (Domingo-Almenara et al. 2019):

Assay: gradient 5% acetonitrile 3 min, to 50% in 2 min, to 85% in 15 min, held 3 min, 100 µL/min
Settings: column: Zorbax Extend-C18 2.1 x 50 mm; eluents: water / acetonitrile, 0.1% formic acid
How it was run: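 In both positive and negative ionization mode, a quadrupole time-of-flight mass spectrometer coupled to HPLC analyzed pure standards run in mixtures of ~100 molecules. The Zorbax Extend-C18 column (2.1 × 50 mm, 1.8 μm) was operated at 100 μL/min with water and acetonitrile, each containing 0.1% formic acid. The dead volume was 40 μL and the dwell volume 900 μL. Retention time came from adduct peaks that were computationally picked and individually inspected by hand.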

SMILES	RP-LC retention time [s]
Cc1ccccc1-c1nc(-c2nnn(Cc3ccccc3)c2C)no1	1120
O=C(NCC1CCCO1)C1CCN(Cc2cc3ccccc3n2Cc2ccc(F)cc2)CC1 (stereo not drawn)	702
Cc1nnc(N2CCC(C(=O)N3CCOCC3)CC2)c2nn(-c3ccccc3)c(C)c12	620
CCCc1nc(-c2c(C)cc(C)nc2NC(=O)c2cccc(Br)c2)no1	1010
C=CCNC(=O)Cc1c(C)n(C)c2nc(-c3ccccc3)nn2c1=O	663
COc1ccc(C(C)NC(=O)c2cc(NC(C)=O)cc3nc(C)ccc23)cc1OC (stereo not drawn)	599
Cn1c(N2CCC(C(=O)NCc3ccccn3)CC2)cc(=O)n(C)c1=O	566
CCc1nnc([C@@H]2CC(F)(F)CN2S(=O)(=O)c2ccc(C)cc2)o1	696
O=c1ccc(-c2nc(-c3ccncc3)no2)nn1Cc1ccc(F)cc1Cl	904
CCCNc1cc(N2CCC(CCC(=O)NC3CC3)CC2)ncn1	588
COC(=O)c1cccc(Nc2c(-c3ccc(C)cc3)nc3cnc(Br)cn23)c1	994
COc1ccc(NC(=O)N(C)CC2CCOCC2)cc1F	682
Cn1cc(-c2ccccc2)cc1C(=O)N1CCOCC1	804
Cc1c(Cl)cccc1Nc1c(-c2ccc(N3CCOCC3)cc2)nc2ncccn12	758
COc1ccccc1NC(=O)Cc1csc2nc(-c3ccc(OC)c(OC)c3)cn12	734
CCOc1ccc(-c2noc(N3CCC(C(=O)N4CCN(C)CC4)CC3)n2)cc1OC	626
Cc1ccc(S(=O)(=O)Nc2cccc(-c3cn4cccc(C)c4n3)c2)cc1	674
COC(=O)c1cc(C)nc2c1c(=O)n(Cc1cccc(F)c1)c(=O)n2Cc1ccco1	1100
CS(=O)(=O)NCC(c1ccsc1)N1CCc2ccccc2C1 (stereo not drawn)	563
CCNC(=O)C1CCc2sc(C(=O)N3CCCCCC3)cc2C1 (stereo not drawn)	748
Cc1ncsc1CN1CCC(Oc2ccccc2-c2nc(C3CC3)no2)C1 (stereo not drawn)	653
CC(C)S(=O)(=O)c1ccc(CC(=O)Nc2cc(-c3cccs3)nn2CCO)cc1	701

SMILES	RP-LC retention time [s]
NC(=O)C1CCN(c2nc3ccccc3nc2S(=O)(=O)Cc2ccc(Cl)cc2)CC1	876
COc1ccc(-c2noc(C3(NC(=O)c4cc(C)cc(C)c4)CCCCC3)n2)cc1	1250
COc1ccc(NC(=O)Cn2ncc3c(N4CCN(c5ccccn5)CC4)ncnc32)cc1	596
CCCC(=O)Nc1ccc2c(c1)N(C(=O)c1ccco1)CCC2	604
COc1ccc(NC(=O)C2CCN(S(=O)(=O)c3ccc4c(c3)NC(=O)C(C)O4)CC2)cc1 (stereo not drawn)	783
Cc1ccc(S(=O)(=O)N2CCCCC2)cc1-c1nnc(-c2ccc(Cl)cc2)o1	1250
CCOc1ccc(-c2ccc(=O)n(CCNC(=O)c3sc(C)nc3C)n2)cc1	672
COc1cccc(Cn2c(=O)c3sccc3n(Cc3nc(-c4ccc(F)cc4)no3)c2=O)c1	1070
COC(=O)C1=C(C)N(C2CCCC2)C(=O)C1(NC(=O)c1cccc(OC)c1)C(F)(F)F (stereo not drawn)	1010
Cc1cc(=O)c2cc(C(=O)Nc3nc4ccccc4s3)ccc2[nH]1	702
O=C(Nc1cccc(Cl)c1)N1CCc2nc(-c3ccccc3)ncc2C1	997
CCCN(CC1CCOC1)C(=O)c1cc(F)ccc1Cl (stereo not drawn)	821
CCOc1ccc(-n2c(N3CCSCC3)nc3cc(C(=O)OC)ccc3c2=O)cc1	800
O=C(Nc1cc(-c2ccccn2)no1)C1CCCCC1	827
Cc1cc(C)c2c(N3CCCC3)nc(C(=O)N(C)Cc3ccccc3)nc2n1	654
O=C(NC1CCN(c2nnc3ccccn23)CC1)c1cccc(F)c1	640
O=C(c1nnc(-c2ccc(S(=O)(=O)N3CCCC3)cc2)o1)N1CCCCC1	847
CCN1CCN(c2nccc(-c3cnc4nc(-c5ccc(Cl)cc5)nn4c3C)n2)CC1	1010
COCCNC(=O)c1nc2ccccn2c1-c1ccc(Cl)cc1	731
O=C(Nc1c(F)cc(F)cc1F)c1sc2ccccc2c1Cl	1030
CSc1ccc(CNC(=O)c2cccc(-c3nc4cccnc4n3C)c2)cc1	759
CCc1ccccc1S(=O)(=O)NCC(c1cccnc1)c1c[nH]c2ccccc12 (stereo not drawn)	706

SMILES	RP-LC retention time [s]
CCOc1ccc(CC(=O)N2CCCn3nc(-c4cccs4)cc3C2)cc1	850
Cc1oc(-c2ccc(C(=O)NCCN3CCOCC3)cc2)nc1CN1CCc2ccccc21	690
O=C(O)CCNS(=O)(=O)c1ccc(Cl)c(-c2nnc(-c3ccccc3)o2)c1	781
COc1ccc(-c2nnc(-c3ccccc3Cl)o2)cc1S(=O)(=O)N1CCCC1	969
COc1ccc(C2(C(=O)N3CC(N(Cc4ccncc4)CC4CC4)C3)CCCCC2)cc1	755
CC(C)Oc1ccc(-c2noc(CN3N=NC4C(=O)N(c5ccccc5)C(=O)C43)n2)cc1 (stereo not drawn)	1020
CCOc1ccc2nc(NC(=O)C3CCN(C(=O)c4ccc(-c5noc(C)n5)cc4)CC3)sc2c1	875
Cc1cc(-c2nc(-c3ccc(F)cc3)no2)c(C)n1CC(=O)N1CCCC(C)C1 (stereo not drawn)	1180
CCOc1ccc(-c2cc3c(=O)n(Cc4nc(-c5ccccc5OCC)no4)ncn3n2)cc1	1180
Cc1ccccc1NC(=O)N1c2ccccc2NC2=C(C(=O)CCC2)C1c1ccco1 (stereo not drawn)	817
O=C(Nc1nc(-c2nc3ccccc3s2)cs1)c1ccno1	810
Cc1ccn2c(Nc3ccc4c(c3)OCO4)c(-c3ccc(O)cc3)nc2c1	629
COc1cccc(-c2noc(CN3C(=O)COc4ccc(Cl)cc43)n2)c1OC	1020
COc1cccc(-n2cc(C(=O)OCc3ccco3)c3ccccc3c2=O)c1	1100
Cc1ccsc1C(=O)N1CCC2(CC1)CC(N(C(=O)NC(C)C)C1CC1)CCO2 (stereo not drawn)	798
COc1ccc(OC)c(CNC(=O)C2CCCN(c3ccc(=O)n(-c4ccc(F)cc4)n3)C2)c1 (stereo not drawn)	812
CCc1ccccc1N1C(=O)CN(S(=O)(=O)CC)CC1(C)C(=O)NC1CCCC1 (stereo not drawn)	826
CN1C(=O)CCc2cc(NS(=O)(=O)c3ccc(Br)s3)ccc21	801
COCc1ncc(C)n1CC1CCN(S(=O)(=O)c2cccc3nsnc23)CC1	641
CCc1ccccc1N(C)C(=O)C1CCCN(c2ncnc3c2nc2n3CCCCC2)C1 (stereo not drawn)	909
Cc1cccc(S(=O)(=O)N2CC3CN(C(=O)c4cnccn4)CC(C2)O3)c1	688
Cc1c(CNCc2ccco2)c(C(=O)O)c(C)n1Cc1ccccc1Cl	720

SMILES	RP-LC retention time [s]
COc1ccc(-c2noc(Cc3nnc(-c4ccc(Cl)cc4)o3)n2)cc1	1060
Cc1cc(F)ccc1NS(=O)(=O)c1cc(-c2[nH]ncc2C(=O)N(C)C)oc1C	697
CCC(=O)Nc1ccc(-n2cnc(C(=O)NC(C)c3ccc(C)cc3)c2)nc1 (stereo not drawn)	781
CN(C)C(=O)c1n[nH]c2c1CN(C(=O)c1ccc(Br)cc1)CC2	634
CCN(CC)C(=O)N1CCC2(CC1)CC(N1CCN(c3ccccc3)CC1)CCO2 (stereo not drawn)	582
O=C1NCCOCCCN(C(=O)Nc2ccc3c(c2)OCCO3)[C@H]2CCCC[C@@H]12	665
O=S(=O)(c1ccc2nncn2c1)N(Cc1ccccc1F)c1ccc2c(c1)OCCO2	745
Cc1ccc(Nc2c(-c3cccc([N+](=O)[O-])c3)nc3cc(C)ccn23)cc1	794
CCNC(=O)c1cnn(-c2ccc(-c3nc(CC)no3)cn2)c1C	777
CN1C(=O)c2cccn2CC1CNC(=O)NCc1ccccc1 (stereo not drawn)	646
CC(C)Cn1cc(CCNC(=O)Nc2c(F)cccc2F)c2cccnc21	755
CC(C)(C)c1cc(C(=O)Nc2ccccc2F)nc2ccnn12	1380
Cc1ccc(CCC(=O)Nc2nc(-c3ccc4c(c3)NC(=O)C(C)O4)cs2)cc1 (stereo not drawn)	973
CC(C)n1cnc2cc(CNC(=O)c3ccoc3)ccc21	574
Cc1cc(C)cc(N2C(=O)CN(S(=O)(=O)c3ccccc3)CC2(C)C(=O)NC2CCCC2)c1 (stereo not drawn)	968
Cc1cccc(NS(=O)(=O)c2ccc3nnc(C)n3c2)c1	687
O=C(c1cc(F)ccc1F)N1CCC2(CC1)NC(=O)N(Cc1ccc(Cl)cc1)C2=O	890
CCCNC(=O)C1Cc2cc(S(=O)(=O)N3CCCCCC3)ccc2N1C(C)=O (stereo not drawn)	744
O=C(Cn1cccn1)NCc1ccc(OCc2ccccc2)cc1	776
O=c1ccn(-c2ccccc2)nc1-c1nc(-c2ccc3c(c2)OCO3)no1	835
O=C(Cc1nnc2cc(-c3nc(C4CC4)no3)ccn12)N1CCCCCC1	685
Cc1cccc(NC(=O)COc2cc(C)nc(N3CCN(c4ccccc4)CC3)n2)c1	856
